# Source: the supplement of paper PMC10307832
# Key:
# Test in all cases: relative viability (nuclei count vs DMSO), 5 days (fraction); higher = more cells survive
# BEN = test system: BEN
# Method in brief: (§1)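 Cells from lung cancer lines were seeded into 1536-well plates and, one day later, dosed by pin tool. Treatments were either a single drug or a fixed dose of an anchor drug with five library-drug doses (not always all listed) in √10 steps. After 5 days, nuclei were stained in a one-step fixation (final 0.05% Triton X-100, 1% formaldehyde, 1 ug/ml Hoechst) and counted on 4× images, and relative viability is the treated-to-vehicle nuclei ratio, as the median of duplicate plates.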
# CAL-12T = test system: CAL-12T
# Method in brief: as §1
# COR-L23 = test system: COR-L23
# Method in brief: as §1
# HCC-366 = test system: HCC-366
# Method in brief: as §1
# LOU-NH91 = test system: LOU-NH91
# Method in brief: as §1
# LU99A = test system: LU99A
# Method in brief: as §1
# NCI-H1355 = test system: NCI-H1355
# Method in brief: as §1
# NCI-H1437 = test system: NCI-H1437
# Method in brief: as §1
# NCI-H1650 = test system: NCI-H1650
# Method in brief: as §1
# NCI-H1651 = test system: NCI-H1651
# Method in brief: as §1
# NCI-H1734 = test system: NCI-H1734
# Method in brief: as §1
# NCI-H1793 = test system: NCI-H1793
# Method in brief: as §1
# NCI-H1975 = test system: NCI-H1975
# Method in brief: as §1
# NCI-H2023 = test system: NCI-H2023
# Method in brief: as §1
# NCI-H2085 = test system: NCI-H2085
# Method in brief: as §1
# NCI-H2342 = test system: NCI-H2342
# Method in brief: as §1
# NCI-H358 = test system: NCI-H358
# Method in brief: as §1
# NCI-H441 = test system: NCI-H441
# Method in brief: as §1
# NCI-H460 = test system: NCI-H460
# Method in brief: as §1
# NCI-H838 = test system: NCI-H838
# Method in brief: as §1
# SK-LU-1 = test system: SK-LU-1
# Method in brief: as §1
smiles,measurement,setting,value
COc1cc2nccc(Oc3ccc(NC(=O)Nc4cc(C)on4)c(Cl)c3)c2cc1OC [Tivozanib] + Cc1cc(Nc2cc(N3CCN(C)CC3)nc(Sc3ccc(NC(=O)C4CC4)cc3)n2)n[nH]1 [Tozasertib] (partner 0.1 µM),relative viability,BEN; first compound 0.005 µM,0.515
same,relative viability,BEN; first compound 0.01581 µM,0.425
same,relative viability,BEN; first compound 0.05 µM,0.572
same,relative viability,BEN; first compound 0.5 µM,0.542
same,relative viability,CAL-12T; first compound 0.005 µM,0.281
same,relative viability,CAL-12T; first compound 0.01581 µM,0.314
same,relative viability,CAL-12T; first compound 0.05 µM,0.373
same,relative viability,CAL-12T; first compound 0.1581 µM,0.277
same,relative viability,CAL-12T; first compound 0.5 µM,0.299
same,relative viability,COR-L23; first compound 0.005 µM,0.172
same,relative viability,COR-L23; first compound 0.01581 µM,0.218
same,relative viability,COR-L23; first compound 0.05 µM,0.363
same,relative viability,COR-L23; first compound 0.1581 µM,0.268
same,relative viability,COR-L23; first compound 0.5 µM,0.228
same,relative viability,HCC-366; first compound 0.005 µM,0.094
same,relative viability,HCC-366; first compound 0.01581 µM,0.115
same,relative viability,HCC-366; first compound 0.05 µM,0.156
same,relative viability,HCC-366; first compound 0.1581 µM,0.137
same,relative viability,HCC-366; first compound 0.5 µM,0.111
same,relative viability,LOU-NH91; first compound 0.005 µM,0.644
same,relative viability,LOU-NH91; first compound 0.01581 µM,0.669
same,relative viability,LOU-NH91; first compound 0.05 µM,0.775
same,relative viability,LOU-NH91; first compound 0.1581 µM,0.759
same,relative viability,LOU-NH91; first compound 0.5 µM,0.659
same,relative viability,LU99A; first compound 0.005 µM,0.299
same,relative viability,LU99A; first compound 0.01581 µM,0.279
same,relative viability,LU99A; first compound 0.05 µM,0.307
same,relative viability,LU99A; first compound 0.1581 µM,0.275
same,relative viability,LU99A; first compound 0.5 µM,0.256
same,relative viability,NCI-H1355; first compound 0.005 µM,0.515
same,relative viability,NCI-H1355; first compound 0.01581 µM,0.576
same,relative viability,NCI-H1355; first compound 0.05 µM,0.57
same,relative viability,NCI-H1355; first compound 0.1581 µM,0.614
same,relative viability,NCI-H1355; first compound 0.5 µM,0.53
same,relative viability,NCI-H1437; first compound 0.005 µM,0.405
same,relative viability,NCI-H1437; first compound 0.01581 µM,0.343
same,relative viability,NCI-H1437; first compound 0.05 µM,0.53
same,relative viability,NCI-H1437; first compound 0.1581 µM,0.44
same,relative viability,NCI-H1437; first compound 0.5 µM,0.436
same,relative viability,NCI-H1650; first compound 0.005 µM,0.445
same,relative viability,NCI-H1650; first compound 0.01581 µM,0.436
same,relative viability,NCI-H1650; first compound 0.05 µM,0.421
same,relative viability,NCI-H1650; first compound 0.1581 µM,0.349
same,relative viability,NCI-H1650; first compound 0.5 µM,0.422
same,relative viability,NCI-H1651; first compound 0.005 µM,0.698
same,relative viability,NCI-H1651; first compound 0.01581 µM,0.768
same,relative viability,NCI-H1651; first compound 0.05 µM,0.758
same,relative viability,NCI-H1651; first compound 0.1581 µM,0.764
same,relative viability,NCI-H1651; first compound 0.5 µM,0.565
same,relative viability,NCI-H1734; first compound 0.005 µM,0.24
same,relative viability,NCI-H1734; first compound 0.01581 µM,0.258
same,relative viability,NCI-H1734; first compound 0.05 µM,0.26
same,relative viability,NCI-H1734; first compound 0.1581 µM,0.275
same,relative viability,NCI-H1734; first compound 0.5 µM,0.252
same,relative viability,NCI-H1793; first compound 0.005 µM,0.335
same,relative viability,NCI-H1793; first compound 0.01581 µM,0.45
same,relative viability,NCI-H1793; first compound 0.05 µM,0.392
same,relative viability,NCI-H1793; first compound 0.1581 µM,0.376
same,relative viability,NCI-H1793; first compound 0.5 µM,0.359
same,relative viability,NCI-H1975; first compound 0.005 µM,0.676
same,relative viability,NCI-H1975; first compound 0.01581 µM,0.739
same,relative viability,NCI-H1975; first compound 0.05 µM,0.789
same,relative viability,NCI-H1975; first compound 0.1581 µM,0.691
same,relative viability,NCI-H1975; first compound 0.5 µM,0.567
same,relative viability,NCI-H2023; first compound 0.005 µM,0.306
same,relative viability,NCI-H2023; first compound 0.01581 µM,0.324
same,relative viability,NCI-H2023; first compound 0.05 µM,0.405
same,relative viability,NCI-H2023; first compound 0.1581 µM,0.4
same,relative viability,NCI-H2023; first compound 0.5 µM,0.413
same,relative viability,NCI-H2085; first compound 0.005 µM,0.806
same,relative viability,NCI-H2085; first compound 0.01581 µM,0.699
same,relative viability,NCI-H2085; first compound 0.05 µM,0.905
same,relative viability,NCI-H2085; first compound 0.1581 µM,0.985
same,relative viability,NCI-H2085; first compound 0.5 µM,0.812
same,relative viability,NCI-H2342; first compound 0.005 µM,0.469
same,relative viability,NCI-H2342; first compound 0.01581 µM,0.543
same,relative viability,NCI-H2342; first compound 0.05 µM,0.603
same,relative viability,NCI-H2342; first compound 0.5 µM,0.43
same,relative viability,NCI-H358; first compound 0.005 µM,0.0936
same,relative viability,NCI-H358; first compound 0.01581 µM,0.101
same,relative viability,NCI-H358; first compound 0.05 µM,0.102
same,relative viability,NCI-H358; first compound 0.1581 µM,0.102
same,relative viability,NCI-H358; first compound 0.5 µM,0.108
same,relative viability,NCI-H441; first compound 0.005 µM,0.682
same,relative viability,NCI-H441; first compound 0.01581 µM,0.635
same,relative viability,NCI-H441; first compound 0.05 µM,0.596
same,relative viability,NCI-H441; first compound 0.1581 µM,0.768
same,relative viability,NCI-H441; first compound 0.5 µM,0.474
same,relative viability,NCI-H460; first compound 0.005 µM,0.394
same,relative viability,NCI-H460; first compound 0.01581 µM,0.394
same,relative viability,NCI-H460; first compound 0.05 µM,0.536
same,relative viability,NCI-H460; first compound 0.1581 µM,0.554
same,relative viability,NCI-H460; first compound 0.5 µM,0.446
same,relative viability,NCI-H838; first compound 0.005 µM,0.268
same,relative viability,NCI-H838; first compound 0.01581 µM,0.291
same,relative viability,NCI-H838; first compound 0.05 µM,0.29
same,relative viability,NCI-H838; first compound 0.5 µM,0.291
same,relative viability,SK-LU-1; first compound 0.005 µM,0.332
same,relative viability,SK-LU-1; first compound 0.01581 µM,0.366
same,relative viability,SK-LU-1; first compound 0.05 µM,0.472
same,relative viability,SK-LU-1; first compound 0.1581 µM,0.357
same,relative viability,SK-LU-1; first compound 0.5 µM,0.335
